CCOC(=O)c1ccc(N)cc1
solubility (mole fraction)
Details | in ethanol | in isobutanol | in isopentanol | in methanol | in n-butanol | in n-propanol
283.15 K | 0.0522 | 0.0281 | 0.0335 | 0.0528 | 0.037 | 0.0441
287.15 K | 0.0611 | 0.0328 | 0.0371 | 0.0629 | 0.0467 | 0.0521
291.15 K | 0.0712 | 0.0392 | 0.0439 | 0.075 | 0.0562 | 0.0605
295.15 K | 0.0831 | 0.048 | 0.0529 | 0.0863 | 0.0668 | 0.071
299.15 K | 0.0982 | 0.0583 | 0.0632 | 0.103 | 0.0821 | 0.085
303.15 K | 0.115 | 0.071 | 0.0757 | 0.12 | 0.0981 | 0.101
307.15 K | 0.135 | 0.0879 | 0.0917 | 0.141 | 0.118 | 0.121
311.15 K | 0.16 | 0.111 | 0.115 | 0.168 | 0.146 | 0.148
315.15 K | 0.191 | 0.14 | 0.145 | 0.2 | 0.176 | 0.179
318.15 K | 0.221 | 0.168 | 0.172 | 0.227 | 0.207 | 0.211
321.15 K | 0.251 | 0.204 | 0.206 | 0.259 | 0.241 | 0.245
324.15 K | 0.289 | 0.25 | 0.252 | 0.296 | 0.281 | 0.284
327.15 K | 0.328 | 0.303 | 0.305 | 0.335 | 0.323 | 0.326
